Earlier results as cited in US20060094692A1, “Pharmaceutical formulations of camptothecins and process for making same” (BioNumerik Pharmaceuticals, Inc., priority 2004, published 2006).

Conditions: fraction of the potency of the lactone form

## CC[C@@](O)(C(=O)O)c1cc2n(c(=O)c1CO)Cc1cc3ccccc3nc1-2 [carboxylate form of CPT]
  antitumor potency relative to the lactone form of CPT: approximately one-tenth or less
